Biological target: T1, human LXRβ (AA 153-461) LBD (Homo sapiens, UniProt P55055)
T1 construct: human LXRβ (AA 153-461) LBD plasmid; expressed in transfected cells; host or cells: HEK 293 cells, transient transfection with Fugene 6
T1 sequence (P55055 153-460 limits assumed): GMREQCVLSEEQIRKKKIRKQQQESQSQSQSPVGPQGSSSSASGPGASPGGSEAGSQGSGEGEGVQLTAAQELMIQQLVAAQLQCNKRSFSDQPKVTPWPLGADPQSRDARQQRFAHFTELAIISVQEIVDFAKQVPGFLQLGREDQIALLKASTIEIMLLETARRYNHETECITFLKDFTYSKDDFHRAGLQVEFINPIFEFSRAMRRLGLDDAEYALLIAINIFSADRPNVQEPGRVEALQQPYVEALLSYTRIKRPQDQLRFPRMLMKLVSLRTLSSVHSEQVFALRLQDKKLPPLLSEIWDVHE
Assay: Gal4 LXRβ cotransfection assay (LXRβ Gal fusion assay)
Type: cell-based
Conditions: transiently transfected HEK 293 cells, Gal4-responsive luciferase reporter, compounds 0.01-10 μM, triplicate
Procedure: For transient transfection of HEK 293 cells, 6×10^3 cells are plated into 96-well dishes. Each well is transfected with 25 ng 5×UAS-luciferase reporter (pG5luc) and 25 ng of […] human LXRβ (AA 153-461) LBD plasmid using Fugene 6 reagent (Roche; Indianapolis, Ind.). The chimeric protein is assessed for the ability to transactivate a Gal4-responsive luciferase reporter plasmid in a concentration-responsive manner to compounds (0.01-10 μM). Luciferase activity at each dose concentration is measured in triplicate using standard substrate reagents (BD Biosciences; San Diego, Calif.). Data is expressed as relative light units and are shown below in Table 1.

Structure (SMILES)	EC50
CCOC(=O)Cc1nc(C(F)(F)F)cn1-c1ccc(-c2cccc(S(C)(=O)=O)c2)cc1 [Example 1, Ethyl 2-(1-(3′-(methylsulfonyl)-[1,1′-biphenyl]-4-yl)-4-(trifluoromethyl)-1H-imidazol-2-yl)acetate]	1 to 10 µM
CS(=O)(=O)c1cccc(-c2ccc(-n3cc(C(F)(F)F)nc3CC(=O)O)cc2)c1 [Example 2, 2-(1-(3′-(Methylsulfonyl)-[1,1′-biphenyl]-4-yl)-4-(trifluoromethyl)-1H-imidazol-2-yl)acetic acid]	> 10 µM
CCOC(=O)Cc1nc(C(F)(F)F)cn1-c1ccc(-c2ccc(CO)c(S(C)(=O)=O)c2)cc1 [Example 3, Ethyl 2-(1-(4′-(hydroxymethyl)-3′-(methylsulfonyl)-[1,1′-biphenyl]-4-yl)-4-(trifluoromethyl)-1H-imidazol-2-yl)acetate]	< 1 µM
CS(=O)(=O)c1cc(-c2ccc(-n3cc(C(F)(F)F)nc3CC(=O)O)cc2)ccc1CO [Example 4, 2-(1-(4′-(Hydroxymethyl)-3′-(methylsulfonyl)[1,1′-biphenyl]-4-yl)-4-(trifluoromethyl)-1H-imidazol-2-yl)acetic acid]	> 10 µM
CCOC(=O)c1cc(-c2ccc(-c3cccc(S(C)(=O)=O)c3)cc2)n(CC(C)C)n1 [Example 5, Ethyl 1-isobutyl-5-(3′-(methylsulfonyl)-[1,1′-biphenyl]-4-yl)-1H-pyrazole-3-carboxylate]	< 1 µM
CC(C)Cn1nc(C(=O)O)cc1-c1ccc(-c2cccc(S(C)(=O)=O)c2)cc1 [Example 6, 1-Isobutyl-5-(3′-(methylsulfonyl)-[1,1′-biphenyl]-4-yl)-1H-pyrazole-3-carboxylic acid]	> 10 µM
CCOC(=O)c1cc(-c2ccc(-c3ccc(CO)c(S(C)(=O)=O)c3)cc2)n(CC(C)C)n1 [Example 7, Ethyl 5-(4′-(hydroxymethyl)-3′-(methylsulfonyl)[1,1′-biphenyl]-4-yl)-1-isobutyl-1H-pyrazole-3-carboxylate]	1 to 10 µM
CC(C)Cn1nc(C(=O)O)cc1-c1ccc(-c2ccc(CO)c(S(C)(=O)=O)c2)cc1 [Example 8, 5-(4′-(Hydroxymethyl)-3′-(methylsulfonyl)-[1,1′-biphenyl]-4-yl)-1-isobutyl-1H-pyrazole-3-carboxylic acid]	> 10 µM
CCOC(=O)c1cn(-c2ccc(-c3cccc(S(C)(=O)=O)c3)cc2)c(CC(C)C)n1 [Example 9, Ethyl 2-isobutyl-1-(3′-(methylsulfonyl)-[1,1′-biphenyl]-4-yl)-1H-imidazole-4-carboxylate]	1 to 10 µM
CC(C)Cc1nc(C(=O)O)cn1-c1ccc(-c2cccc(S(C)(=O)=O)c2)cc1 [Example 10, 2-Isobutyl-1-(3′-(methylsulfonyl)-[1,1′-biphenyl]-4-yl)-1H-imidazole-4-carboxylic acid]	> 10 µM
CCOC(=O)c1cn(-c2ccc(-c3ccc(CO)c(S(C)(=O)=O)c3)cc2)c(CC(C)C)n1 [Example 11, Ethyl 1-(4′-(hydroxymethyl)-3′-(methylsulfonyl)-[1,1′-biphenyl]-4-yl)-2-isobutyl-1H-imidazole-4-carboxylate]	1 to 10 µM

More lines, now with the values ahead:

EC50	Structure (SMILES)
> 10 µM	CC(C)Cc1nc(C(=O)O)cn1-c1ccc(-c2ccc(CO)c(S(C)(=O)=O)c2)cc1 [Example 12, 1-(4′-(Hydroxymethyl)-3′-(methylsulfonyl)-[1,1′-biphenyl]-4-yl)-2-isobutyl-1H-imidazole-4-carboxylic acid]
< 1 µM	C=C(C)c1cc(-c2ccc(-c3cccc(S(C)(=O)=O)c3)cc2)n(CC(=O)OCC)n1 [Example 13, Ethyl 2-(5-(3′-(methylsulfonyl)-[1,1′-biphenyl]-4-yl)-3-(prop-1-en-2-yl)-1H-pyrazol-1-yl)acetate]
> 10 µM	C=C(C)c1cc(-c2ccc(-c3cccc(S(C)(=O)=O)c3)cc2)n(CC(=O)O)n1 [Example 14, 2-(5-(3′-(Methylsulfonyl)-[1,1′-biphenyl]-4-yl)-3-(prop-1-en-2-yl)-1H-pyrazol-1-yl)acetic acid]
1 to 10 µM	CCOC(=O)Cn1nc(C(C)C)cc1-c1ccc(-c2cccc(S(C)(=O)=O)c2)cc1 [Example 15, Ethyl 2-(3-isopropyl-5-(3′-(methylsulfonyl)-[1,1′-biphenyl]-4-yl)-1H-pyrazol-1-yl)acetate]
> 10 µM	CC(C)c1cc(-c2ccc(-c3cccc(S(C)(=O)=O)c3)cc2)n(CC(=O)O)n1 [Example 16, 2-(3-Isopropyl-5-(3′-(methylsulfonyl)-[1,1′-biphenyl]-4-yl)-1H-pyrazol-1-yl)acetic acid]
